According to US11458225B2, “3D vascularized human ocular tissue for cell therapy and drug discovery” (THE UNITED STATES OF AMERICA, as represented by the …, priority 2016, dated 2022):
Entries after “also recorded” stand apart in the source; their conditions may differ.

Key:
RPE-“choroid” tissues = assay: Hypoxia disease model: DMOG treatment of bioprinted RPE-"choroid" tissue, confocal imaging; assay type: cell-based, human; settings: two weeks of treatment
Procedure: FIGS. 18A-18I are digital images showing the effect of hypoxia on “choriocapillaris.” RPE-“choroid” tissues were treated with DMOG (100 μM) after 4 weeks from printing. DMOG inhibits prolyl-4-hydroxylase and induces hypoxia-inducible factor. DMOG was treated on only apical region of RPE or on both apical region of RPE and “choroid” sides. After two weeks of DMOG treatment, tissues were fixed in 4% PFA. Z-stack confocal images were separated into three sections as RPE (A-C), subRPE/scaffold (D-F), and “choroid” (G-I). RPE was recognized by Hoescht (nuclei). Choroid was stained with CD31. Scale bar=100 μm.
It was tested if hypoxic condition of RPE or RPE-“choroid” plays a role in “choroidal” neovascularization. Hypoxia has been reported as a crucial factor to induce wet AMD. A chemical compound, DMOG, was used to induce hypoxia-inducible factor in RPE or every cell type within the tissue.

[1] = tested on: 3D vascularized tissue containing GFP positive primary endothelial cells, pericytes, and fibroblasts; settings: a week of VEGF treatment (85 ng/ml) vs 3 days then basal 1.7 ng/ml
Excerpt: (A) 8 bit images of printed GFP endothelial cells (white) were quantified. Five line probes were placed in each gap between stripes of the printed geometry. Each line probe detects peaks (hollow circles) of GFP intensity above a threshold. Line 1 and 6, 2 and 5, 3 and 4 indicate edge, intermediate, and center of each gap, respectively. (B) Two experimental groups are compared. […] Angiogenesis was quantified as a number of GFP peaks in each line probe. The quantification of angiogenesis was performed between groups and time frames of G (n=5; number of printings). Error bars indicates standard error and mean. Two-way ANOVA and Bonferroni post-hoc pair comparison. † indicates statistical significance (p<0.05) between groups (left figure) and day 5-6 and day 7-8 (right figure). # and * indicates statistical significance (p<0.05) in day 3-4 vs. day 5-6 and day 3-4 vs. day 7-8, respectively.

Row | Compound | vascularization in sub-RPE region (CD31 stain) (RPE-“choroid” tissues; DMOG 100 μM from 4 weeks after printing, on apical region of RPE only or on both RPE and “choroid” sides) | changes of the RPE monolayer (RPE-“choroid” tissues; DMOG 100 μM, RPE recognized by Hoescht) | growth and viability of microvascular network [1]
1 | COC(=O)CNC(=O)C(=O)OC [DMOG] | significantly induced vascularization in sub-RPE region; also recorded: induced vascularization in the subRPE region | did not show noticeable changes | –
2 | VEGF | – | – | significantly enhanced growth and viability of microvascular network
